Literature values in patent publication US6605304B1, “Silicate-containing powders providing controlled, sustained gas release” (Bernard Technologies, Inc., priority 1998, dated 2003).

Columns and labels:
[1] = system: mold spores, bacteria and other microbiological contaminants

SMILES | mutagenic potential (mice; mouse, in vivo, po) | chromosomal aberrations or micronuclei in the bone marrow (mice; mice, subchronic and acute oral administration) | concentration that penetrates and destroys contaminants [1]
OCl [hypochlorite] | weak positive effect |  | 
[O][Cl+][O-] [chlorine dioxide] |  | failed to induce any chromosomal aberrations or increased numbers of micronuclei | below one
